In publication PMC8231556, “Inhibiting Endothelial Cell Function in Normal and Tumor Angiogenesis Using BMP Type I Receptor Macrocyclic Kinase Inhibitors” (Cancers, 2021):

Legend:
Experiment in all cases: radiometric kinase profiling (33 PanQinase)
Assay type in all cases: biochemical
PDGFRA = target: T1, PDGFRA (Homo sapiens, UniProt P16234); conditions: read-out: Inhibitory effect (%) PDGFRA
T1 construct: purchased ProQinase (33PanQinase Activity Assay)
Outline: (§1)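 Enzyme/substrate mixes were incubated with [γ-33P]-ATP and compound (added as a 0.1 μM solution in 10% DMSO) at 30 °C for 60 min, then stopped with H3PO4 and washed with NaCl. 33P incorporation was scintillation-counted, and residual activity (%) was normalized to untreated control and background.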

LIMK1 = target: T2, LIMK1 (Homo sapiens, UniProt P53667); conditions: read-out: Inhibitory effect (%) LIMK1
T2 construct: purchased ProQinase (33PanQinase Activity Assay)
Outline: as §1

SGK3 = target: T3, SGK3 (Homo sapiens, UniProt Q96BR1); conditions: read-out: Inhibitory effect (%) SGK3
T3 construct: purchased ProQinase (33PanQinase Activity Assay)
T3 sequence (Q96BR1 1-496): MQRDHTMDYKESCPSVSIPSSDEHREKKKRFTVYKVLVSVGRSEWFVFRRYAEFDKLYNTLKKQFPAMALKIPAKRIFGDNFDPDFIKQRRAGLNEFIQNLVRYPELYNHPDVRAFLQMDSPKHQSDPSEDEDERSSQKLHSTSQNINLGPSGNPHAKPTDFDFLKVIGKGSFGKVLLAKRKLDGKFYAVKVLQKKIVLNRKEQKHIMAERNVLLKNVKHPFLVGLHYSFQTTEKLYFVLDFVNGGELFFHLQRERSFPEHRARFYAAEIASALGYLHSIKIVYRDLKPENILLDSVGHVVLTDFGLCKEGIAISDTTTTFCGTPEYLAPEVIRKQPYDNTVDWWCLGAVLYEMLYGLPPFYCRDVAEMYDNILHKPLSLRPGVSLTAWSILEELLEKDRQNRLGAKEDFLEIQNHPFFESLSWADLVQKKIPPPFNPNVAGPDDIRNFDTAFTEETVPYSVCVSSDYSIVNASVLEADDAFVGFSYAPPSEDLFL
Outline: as §1

MAPK14 = target: T4, MAPK14 (Homo sapiens, UniProt Q16539); conditions: read-out: Inhibitory effect (%) MAPK14
T4 construct: purchased ProQinase (33PanQinase Activity Assay)
Outline: as §1

EPHB4 = target: T5, EPHB4 (Homo sapiens, UniProt P54760); conditions: read-out: Inhibitory effect (%) EPHB4
T5 construct: purchased ProQinase (33PanQinase Activity Assay)
T5 sequence (P54760 16-987): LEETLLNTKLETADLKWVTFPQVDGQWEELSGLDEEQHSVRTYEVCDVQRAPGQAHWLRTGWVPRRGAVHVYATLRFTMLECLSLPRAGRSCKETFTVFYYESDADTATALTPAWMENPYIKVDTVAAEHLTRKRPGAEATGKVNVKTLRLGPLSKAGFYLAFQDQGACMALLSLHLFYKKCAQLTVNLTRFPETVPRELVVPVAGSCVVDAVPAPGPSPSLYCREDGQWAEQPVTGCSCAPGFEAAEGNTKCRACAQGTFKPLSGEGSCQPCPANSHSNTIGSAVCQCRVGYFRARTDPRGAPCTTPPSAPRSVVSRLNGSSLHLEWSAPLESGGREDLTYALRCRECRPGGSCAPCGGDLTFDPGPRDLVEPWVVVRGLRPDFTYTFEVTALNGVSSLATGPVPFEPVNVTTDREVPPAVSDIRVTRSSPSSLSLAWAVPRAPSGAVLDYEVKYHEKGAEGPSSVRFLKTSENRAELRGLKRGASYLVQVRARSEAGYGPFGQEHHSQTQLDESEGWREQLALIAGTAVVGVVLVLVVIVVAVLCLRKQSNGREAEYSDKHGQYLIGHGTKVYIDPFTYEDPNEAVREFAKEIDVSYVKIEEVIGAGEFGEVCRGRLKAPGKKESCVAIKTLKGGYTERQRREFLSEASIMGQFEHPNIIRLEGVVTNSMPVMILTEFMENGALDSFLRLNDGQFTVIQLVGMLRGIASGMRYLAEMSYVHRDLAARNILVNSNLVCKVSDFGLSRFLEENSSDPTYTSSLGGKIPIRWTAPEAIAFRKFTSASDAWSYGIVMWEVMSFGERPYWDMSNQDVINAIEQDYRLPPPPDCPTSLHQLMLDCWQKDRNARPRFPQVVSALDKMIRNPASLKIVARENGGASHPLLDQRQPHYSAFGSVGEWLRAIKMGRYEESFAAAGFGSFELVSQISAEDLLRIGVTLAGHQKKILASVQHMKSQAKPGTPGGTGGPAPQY
Outline: as §1

CSNK1A1 = target: T6, CSNK1A1 (Homo sapiens, UniProt P48729); conditions: read-out: Inhibitory effect (%) CSNK1A1
T6 construct: purchased Proqinase, Germany
Outline: as §1

MAPKAPK2 = target: T7, MAPKAPK2 (Homo sapiens, UniProt P49137); conditions: read-out: Inhibitory effect (%) MAPKAPK2
T7 construct: purchased ProQinase (33PanQinase Activity Assay)
Outline: as §1

EIF2AK1 = target: T8, EIF2AK1 (Homo sapiens, UniProt Q9BQI3); conditions: read-out: Inhibitory effect (%) EIF2AK1
T8 construct: purchased Proqinase, Germany
Outline: as §1

PRKACA = target: T9, PRKACA (Homo sapiens, UniProt P17612); conditions: read-out: Inhibitory effect (%) PRKACA
T9 construct: purchased ProQinase (33PanQinase Activity Assay)
Outline: as §1

T1 sequence (P16234 24-1089): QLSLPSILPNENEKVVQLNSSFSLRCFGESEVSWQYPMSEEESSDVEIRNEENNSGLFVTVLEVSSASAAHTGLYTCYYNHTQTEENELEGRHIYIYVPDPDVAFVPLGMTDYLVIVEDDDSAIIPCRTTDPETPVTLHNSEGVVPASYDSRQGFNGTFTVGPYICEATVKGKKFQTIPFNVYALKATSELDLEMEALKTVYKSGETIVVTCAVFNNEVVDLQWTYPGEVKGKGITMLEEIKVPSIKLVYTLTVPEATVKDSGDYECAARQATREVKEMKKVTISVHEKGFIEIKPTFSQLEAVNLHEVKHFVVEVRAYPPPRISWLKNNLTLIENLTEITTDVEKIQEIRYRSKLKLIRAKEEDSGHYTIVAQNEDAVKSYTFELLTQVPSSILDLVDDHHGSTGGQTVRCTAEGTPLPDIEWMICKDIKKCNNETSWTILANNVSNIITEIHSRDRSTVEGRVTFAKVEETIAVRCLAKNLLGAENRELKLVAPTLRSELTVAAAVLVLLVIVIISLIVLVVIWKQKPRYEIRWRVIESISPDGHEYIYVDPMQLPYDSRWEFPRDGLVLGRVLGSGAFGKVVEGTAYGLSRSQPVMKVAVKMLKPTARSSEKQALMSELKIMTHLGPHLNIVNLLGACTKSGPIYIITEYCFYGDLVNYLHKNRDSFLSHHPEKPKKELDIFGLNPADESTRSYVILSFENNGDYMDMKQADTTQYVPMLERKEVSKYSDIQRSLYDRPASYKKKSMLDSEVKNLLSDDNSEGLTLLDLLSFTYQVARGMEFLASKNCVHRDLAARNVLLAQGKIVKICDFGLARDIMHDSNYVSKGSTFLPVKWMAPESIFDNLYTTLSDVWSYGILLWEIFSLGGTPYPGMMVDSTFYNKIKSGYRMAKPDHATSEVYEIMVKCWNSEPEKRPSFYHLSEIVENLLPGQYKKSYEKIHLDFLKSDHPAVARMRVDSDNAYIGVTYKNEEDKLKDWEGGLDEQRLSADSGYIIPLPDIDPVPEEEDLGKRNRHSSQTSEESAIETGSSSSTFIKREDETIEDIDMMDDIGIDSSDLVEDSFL
T8 sequence (Q9BQI3 whole entry): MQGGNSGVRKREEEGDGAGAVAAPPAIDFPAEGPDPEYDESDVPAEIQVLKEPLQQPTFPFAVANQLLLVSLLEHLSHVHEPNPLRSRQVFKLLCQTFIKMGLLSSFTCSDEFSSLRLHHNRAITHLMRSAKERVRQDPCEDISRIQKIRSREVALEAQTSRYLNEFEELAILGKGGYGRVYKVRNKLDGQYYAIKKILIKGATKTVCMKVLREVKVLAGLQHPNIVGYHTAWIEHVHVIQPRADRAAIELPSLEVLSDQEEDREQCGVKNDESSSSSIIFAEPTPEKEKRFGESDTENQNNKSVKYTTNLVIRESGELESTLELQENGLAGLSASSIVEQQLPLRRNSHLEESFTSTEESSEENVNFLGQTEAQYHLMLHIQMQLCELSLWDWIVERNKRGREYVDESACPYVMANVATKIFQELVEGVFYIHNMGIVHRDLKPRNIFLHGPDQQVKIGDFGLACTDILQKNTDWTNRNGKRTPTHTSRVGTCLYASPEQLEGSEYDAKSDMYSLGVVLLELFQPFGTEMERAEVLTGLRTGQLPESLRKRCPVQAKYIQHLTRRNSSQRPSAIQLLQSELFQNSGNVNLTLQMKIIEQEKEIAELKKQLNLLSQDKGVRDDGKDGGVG
T6 sequence (P48729 whole entry): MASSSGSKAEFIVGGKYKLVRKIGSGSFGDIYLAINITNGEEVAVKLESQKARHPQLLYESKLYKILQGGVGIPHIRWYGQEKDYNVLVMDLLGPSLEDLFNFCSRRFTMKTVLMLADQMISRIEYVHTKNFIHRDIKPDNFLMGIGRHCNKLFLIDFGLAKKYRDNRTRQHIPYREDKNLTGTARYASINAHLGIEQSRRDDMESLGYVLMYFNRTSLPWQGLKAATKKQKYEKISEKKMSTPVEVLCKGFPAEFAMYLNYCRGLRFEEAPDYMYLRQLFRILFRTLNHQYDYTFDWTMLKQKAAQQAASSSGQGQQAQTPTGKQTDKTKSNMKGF
T4 sequence (Q16539 whole entry): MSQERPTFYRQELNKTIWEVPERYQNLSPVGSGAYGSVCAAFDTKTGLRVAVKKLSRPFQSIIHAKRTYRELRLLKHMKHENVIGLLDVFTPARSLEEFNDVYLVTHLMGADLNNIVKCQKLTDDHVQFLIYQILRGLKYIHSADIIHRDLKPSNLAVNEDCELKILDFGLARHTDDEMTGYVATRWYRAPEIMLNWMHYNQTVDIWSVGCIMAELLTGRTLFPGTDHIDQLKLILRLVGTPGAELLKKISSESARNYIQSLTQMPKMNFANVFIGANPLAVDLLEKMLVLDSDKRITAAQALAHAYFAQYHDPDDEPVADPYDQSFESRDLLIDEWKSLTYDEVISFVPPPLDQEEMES
T2 sequence (P53667 whole entry): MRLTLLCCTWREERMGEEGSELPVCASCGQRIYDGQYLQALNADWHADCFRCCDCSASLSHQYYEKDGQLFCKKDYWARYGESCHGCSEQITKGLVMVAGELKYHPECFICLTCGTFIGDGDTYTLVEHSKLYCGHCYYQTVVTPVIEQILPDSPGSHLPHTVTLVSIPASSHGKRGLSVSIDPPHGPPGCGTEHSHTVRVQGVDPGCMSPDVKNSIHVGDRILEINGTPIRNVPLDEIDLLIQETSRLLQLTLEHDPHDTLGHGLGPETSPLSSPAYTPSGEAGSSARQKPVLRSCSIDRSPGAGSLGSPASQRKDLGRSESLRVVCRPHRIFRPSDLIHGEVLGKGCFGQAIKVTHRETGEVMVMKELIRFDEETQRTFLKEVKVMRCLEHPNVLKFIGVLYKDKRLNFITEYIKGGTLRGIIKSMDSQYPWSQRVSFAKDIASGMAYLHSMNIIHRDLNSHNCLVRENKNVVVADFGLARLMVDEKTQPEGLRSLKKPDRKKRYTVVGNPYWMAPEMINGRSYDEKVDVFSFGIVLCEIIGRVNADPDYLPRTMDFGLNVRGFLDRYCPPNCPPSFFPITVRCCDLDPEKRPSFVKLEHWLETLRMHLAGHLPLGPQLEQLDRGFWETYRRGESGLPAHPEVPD
T7 sequence (P49137 whole entry): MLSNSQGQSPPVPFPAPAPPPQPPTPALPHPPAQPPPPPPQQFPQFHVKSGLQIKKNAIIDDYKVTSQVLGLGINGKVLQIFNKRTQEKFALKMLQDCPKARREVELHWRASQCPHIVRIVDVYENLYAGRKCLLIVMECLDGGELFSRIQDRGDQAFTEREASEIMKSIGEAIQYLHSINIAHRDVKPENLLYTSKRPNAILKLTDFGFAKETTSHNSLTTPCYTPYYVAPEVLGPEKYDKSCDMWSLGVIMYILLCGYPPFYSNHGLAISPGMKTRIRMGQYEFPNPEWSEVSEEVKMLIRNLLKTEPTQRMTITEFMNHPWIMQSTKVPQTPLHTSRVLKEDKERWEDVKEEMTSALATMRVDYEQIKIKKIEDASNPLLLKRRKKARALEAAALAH

c1ccc2c(-c3cnn4cc(-c5ccc(N6CCNCC6)cc5)cnc34)ccnc2c1 [LDN-193189, reference compound]
inhibition at 0.1 µM (PDGFRA): 3.63%
inhibition at 0.1 µM (LIMK1): 8.92%
inhibition at 0.1 µM (SGK3): -26.9%
inhibition at 0.1 µM (MAPK14): 0.3%
inhibition at 0.1 µM (EPHB4): 4.39%
inhibition at 0.1 µM (CSNK1A1): -3.63%
inhibition at 0.1 µM (MAPKAPK2): 0.06%
inhibition at 0.1 µM (EIF2AK1): -16.3%
inhibition at 0.1 µM (PRKACA): -14.1%

CN1CCC(=O)NCCNc2ccn3ncc(c3n2)-c2cccc(c2)C1 [OD29]
inhibition at 0.1 µM (PDGFRA): -9.93%
inhibition at 0.1 µM (LIMK1): 1.15%
inhibition at 0.1 µM (SGK3): -21.9%
inhibition at 0.1 µM (MAPK14): 45.2%
inhibition at 0.1 µM (EPHB4): 3.64%
inhibition at 0.1 µM (CSNK1A1): -2.21%
inhibition at 0.1 µM (MAPKAPK2): -4.8%
inhibition at 0.1 µM (EIF2AK1): -0.05%
inhibition at 0.1 µM (PRKACA): 9.09%

CN1CCc2cccc(c2)Nc2nccc(n2)N2CCCc3cc(ccc32)C1 [OD16]
inhibition at 0.1 µM (PDGFRA): -16%
inhibition at 0.1 µM (LIMK1): 30.3%
inhibition at 0.1 µM (SGK3): 2.44%
inhibition at 0.1 µM (MAPK14): -3.1%
inhibition at 0.1 µM (EPHB4): -36.6%
inhibition at 0.1 µM (CSNK1A1): 0.99%
inhibition at 0.1 µM (MAPKAPK2): -14.6%
inhibition at 0.1 µM (EIF2AK1): -7.88%
inhibition at 0.1 µM (PRKACA): -19.5%
